For 17 molecules, IC50 and microsomal CLint results are on record in EP4725941A1, “ARYLAMIDE DERIVATIVE HAVING ANTITUMOR ACTIVITY” (priority 2020, dated 2021).

The test system of data set [1] is NCI-H2122. Nature of the data set: Cell proliferation-inhibiting activity (ATP in viable cells, CellTiter-Glo), NCI-H2122. The format is cell-based, human. The conditions noted are these: NCI-H2122, 96 h, read-out: NCI-H2122 IC50.
The target of data set [2] is T1, MEK1 (Homo sapiens, UniProt Q02750).
T1 construct: purchased Thermo Fisher Scientific Inc. (MEK1, CRAF); Carna Biosciences, Inc. (ERK2)
The data set can be described thus: MEK1-inhibiting activity, fluorescent polarization method (CRAF/MEK1/ERK2 cascade, IMAP). The format is biochemical. The following applies: Table 3; read-out: MEK1 IC50. The protocol: The MEK1-inhibiting activity of the compounds listed in Table 3 below were evaluated by the fluorescent polarization method as described below.

In data set [3] the test system is A549. The data set can be described thus: Cell proliferation-inhibiting activity (ATP in viable cells, CellTiter-Glo), A549. Format: cell-based, human. The following applies: A549, 96 h, read-out: A549 IC50.
A short description of data set [4]: Human liver microsome stability. Format: in vitro ADME. The conditions noted are these: human liver microsomes, pH 7.4.
The target of data set [5] is T2, BRAF (Homo sapiens, UniProt P15056).
T2 construct: purchased Eurofins Genomics KK; (BRAF); Thermo Fisher Scientific Inc. (MEK1)
The data set can be described thus: BRAF-inhibiting activity, time-resolved fluorescence-fluorescence resonance energy transfer assay. Format: biochemical. The procedure:
The BRAF-inhibiting activity of the compounds listed in Table 3 below was evaluated by the time-resolved fluorescence-fluorescence resonance energy transfer assay as described below.

In data set [6] the test system is Calu-6. The data set can be described thus: Cell proliferation-inhibiting activity (ATP in viable cells, CellTiter-Glo), Calu-6. Format: cell-based, human. The following applies: Calu-6, 96 h, read-out: Calu-6 IC50.
[7] abbreviates: human lung cancer cells, 4 days.

SMILES strings stand for the structures. Like-named read-outs stand apart in the source and are kept apart here.

T1 sequence (Q02750 whole entry): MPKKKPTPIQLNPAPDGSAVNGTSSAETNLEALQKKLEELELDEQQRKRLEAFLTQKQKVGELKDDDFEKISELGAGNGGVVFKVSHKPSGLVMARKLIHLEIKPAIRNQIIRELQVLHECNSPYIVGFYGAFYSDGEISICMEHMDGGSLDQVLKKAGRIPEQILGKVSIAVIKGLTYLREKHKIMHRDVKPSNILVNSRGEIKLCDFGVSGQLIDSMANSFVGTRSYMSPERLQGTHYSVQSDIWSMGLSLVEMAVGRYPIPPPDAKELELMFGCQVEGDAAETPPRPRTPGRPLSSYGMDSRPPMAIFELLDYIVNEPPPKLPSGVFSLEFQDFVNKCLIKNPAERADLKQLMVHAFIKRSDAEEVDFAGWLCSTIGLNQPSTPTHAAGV
T2 sequence (P15056 417-766 limits assumed): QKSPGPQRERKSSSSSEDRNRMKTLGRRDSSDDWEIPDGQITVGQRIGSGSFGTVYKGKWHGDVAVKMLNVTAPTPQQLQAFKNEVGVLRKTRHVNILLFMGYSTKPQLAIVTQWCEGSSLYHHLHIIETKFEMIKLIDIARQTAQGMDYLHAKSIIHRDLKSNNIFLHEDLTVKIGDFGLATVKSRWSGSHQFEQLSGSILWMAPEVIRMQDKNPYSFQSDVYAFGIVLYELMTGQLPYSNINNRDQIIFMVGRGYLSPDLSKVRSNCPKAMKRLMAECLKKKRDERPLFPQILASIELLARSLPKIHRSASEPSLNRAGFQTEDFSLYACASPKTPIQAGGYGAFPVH

As for `NC(=O)c1cc(Cc2cccc(NS(=O)(=O)C3CCOCC3)c2F)c(F)c(F)c1Nc1ccc(I)cc1F` [Compound E-23, 3,4-difluoro-2-(2-fluoro-4-iodoanilino)-5-[[2-fluoro-3-(oxan-4-ylsulfonylamino)phenyl]methyl]benzamide], the IC50 is 4 nM in data set [1] (setting [7]); 61 nM in data set [2]; 31 nM in data set [3] (setting [7]); 6 nM in data set [5] (read-out: BRAF IC50; Table 3); 47 nM in data set [6] (setting [7]). Moreover, the microsomal CLint at 0.99 µM in data set [4] is 98 µL/min/mg.

Consider `CC(C)S(=O)(=O)Nc1cccc(Cc2cc(C(N)=O)c(Nc3ccc(I)cc3F)c(F)c2F)c1F` [Compound E-24, 3,4-Difluoro-2-(2-fluoro-4-iodoanilino)-5-[[2-fluoro-3-(propan-2-ylsulfonylamino)phenyl]methyl]benzamide], for which the IC50 in data set [1] (setting [7]) turned out to be 5 nM; in data set [2] it was 189 nM; in data set [3] (setting [7]) it was 26 nM; in data set [5] (read-out: BRAF IC50; Table 3), 20 nM; in data set [6] (setting [7]), 63 nM. In data set [4], this molecule gave an intrinsic clearance (microsomal CLint) at 0.99 µM of 10 µL/min/mg.

For `CCS(=O)(=O)Nc1cccc(Cc2cc(C(N)=O)c(Nc3ccc(I)cc3F)c(F)c2F)c1` [Compound F-2, 5-[[3-(Ethylsulfonylamino)phenyl]methyl]-3,4-difluoro-2-(2-fluoro-4-iodoanilino)benzamide], the IC50 in data set [1] (setting [7]) turned out to be 8 nM; in data set [2] it was 383 nM; in data set [3] (setting [7]), 8 nM; in data set [5] (read-out: BRAF IC50; Table 3), 5 nM; in data set [6] (setting [7]), 66 nM. In data set [4], this molecule showed a microsomal CLint at 0.99 µM of 15 µL/min/mg.

Regarding `CNS(=O)(=O)Nc1nccc(Cc2cc(C(=O)NOC)c(Nc3ccc(C4CC4)cc3F)c(F)c2F)c1F` [Compound G-2, 2-(4-Cyclopropyl-2-fluoroanilino)-3,4-difluoro-5-[[3-fluoro-2-(methylsulfamoylamino)pyridin-4-yl]methyl]-N-methoxybenzamide], the IC50 in data set [1] (setting [7]) turned out to be 0.4 nM; in data set [2] it was 6 nM; in data set [3] (setting [7]) it was 2 nM; in data set [5] (read-out: BRAF IC50; Table 3), 3 nM; in data set [6] (setting [7]) it was 13 nM. The microsomal CLint at 0.99 µM in data set [4] is 31 µL/min/mg.

With `CNS(=O)(=O)Nc1nccc(Cc2cc(C(=O)NOC)c(Nc3ccc(Br)cc3F)c(F)c2F)c1F` [Compound G-3, 2-(4-Bromo-2-fluoroanilino)-3,4-difluoro-5-[[3-fluoro-2-(methylsulfamoylamino)pyridin-4-yl]methyl]-N-methoxybenzamide], the IC50 was determined as 2 nM in data set [1] (setting [7]); 15 nM in data set [2]; 7 nM in data set [3] (setting [7]); 5 nM in data set [5] (read-out: BRAF IC50; Table 3); 47 nM in data set [6] (setting [7]). In data set [4], the microsomal CLint at 0.99 µM was determined as 29 µL/min/mg.

Turning to `CNS(=O)(=O)Nc1nccc(Cc2cc(C(N)=O)c(Nc3ccc(SC(F)F)cc3F)c(F)c2F)c1F` [Compound H-1, 2-[4-(difluoromethylsulfanyl)-2-fluoroanilino]-3,4-difluoro-5-[[3-fluoro-2-(methylsulfamoylamino)pyridin-4-yl]methyl]benzamide], the IC50 is 5 nM in data set [1] (Homo sapiens); 7 nM in data set [2]; 9 nM in data set [3] (Homo sapiens); 2 nM in data set [5] (Table 3; read-out: BRAF IC50); 21 nM in data set [6] (Homo sapiens). The molecule further yielded a microsomal CLint at 0.99 µM in data set [4] of 39 µL/min/mg.

As to `CNS(=O)(=O)Nc1nccc(Oc2cc(C(N)=O)c(Nc3ccc(I)cc3F)c(F)c2F)c1F` [Compound H-4, 3,4-difluoro-2-(2-fluoro-4-iodoanilino)-5-[3-fluoro-2-(methylsulfamoylamino)pyridin-4-yl]oxybenzamide], the IC50 is 1 nM in data set [1] (setting [7]); 8 nM in data set [2]; 9 nM in data set [3] (setting [7]); 12 nM in data set [5] (read-out: BRAF IC50; Table 3); 6 nM in data set [6] (setting [7]). In data set [4], the microsomal CLint at 0.99 µM was found to be 11 µL/min/mg.

Regarding `CNS(=O)(=O)Nc1nccc(Cc2cc(C(N)=O)c(Nc3ccc(I)cc3F)cc2F)c1F` [Compound I-1, 4-fluoro-2-(2-fluoro-4-iodoanilino)-5-[[3-fluoro-2-(methylsulfamoylamino)pyridin-4-yl]methyl]benzamide], the IC50 was 3 nM in data set [1] (setting [7]); 25 nM in data set [2]; 5 nM in data set [3] (setting [7]); 3 nM in data set [5] (read-out: BRAF IC50; Table 3); 15 nM in data set [6] (setting [7]). This molecule also registered a microsomal CLint at 0.99 µM in data set [4] of 19 µL/min/mg.

Regarding `CNS(=O)(=O)Nc1nccc(Cc2cc(C(N)=O)c(Nc3ccc(I)cc3F)n(C)c2=O)c1F` [Compound J-1, 2-(2-fluoro-4-iodoanilino)-5-[[3-fluoro-2-(methylsulfamoylamino)pyridin-4-yl]methyl]-1-methyl-6-oxopyridine-3-carboxamide], the IC50 turned out to be 8 nM in data set [1] (setting [7]); 58 nM in data set [2]; 38 nM in data set [3] (setting [7]); 4 nM in data set [5] (read-out: BRAF IC50; Table 3); 29 nM in data set [6] (setting [7]). The same molecule displayed a microsomal CLint at 0.99 µM in data set [4] of 11 µL/min/mg.

Consider `Cn1c(Nc2ccc(C3CC3)cc2F)c(C(N)=O)cc(Cc2ccnc(NS(=O)(=O)NC3CC3)c2F)c1=O` [Compound J-4, 2-(4-Cyclopropyl-2-fluoroanilino)-5-[[2-(cyclopropylsulfamoylamino)-3-fluoropyridin-4-yl]methyl]-1-methyl-6-oxopyridine-3-carboxamide], for which the IC50 in data set [1] (Homo sapiens) is 1060 nM; in data set [2], 877 nM; in data set [3] (Homo sapiens), more than 2000 nM; in data set [5] (Table 3; read-out: BRAF IC50), 14 nM; in data set [6] (Homo sapiens), more than 2000 nM. For the same molecule, in data set [4], the microsomal CLint at 0.99 µM turned out to be 67 µL/min/mg.

With `CNS(=O)(=O)Nc1nccc(Cc2cc(C(=O)NC3CC3)c(Nc3ccc(I)cc3F)n(C)c2=O)c1F` [Compound J-5, N-cyclopropyl-2-(2-fluoro-4-iodoanilino)-5-[[3-fluoro-2-(methylsulfamoylamino)pyridin-4-yl]methyl]-1-methyl-6-oxopyridine-3-carbo xamide], the IC50 in data set [1] (setting [7]) was 4 nM; in data set [2], 117 nM; in data set [3] (setting [7]), 7 nM; in data set [5] (read-out: BRAF IC50; Table 3), 8 nM; in data set [6] (setting [7]), 29 nM. The molecule further registered a microsomal CLint at 0.99 µM in data set [4] of 20 µL/min/mg.

As for `Cn1c(Nc2ccc(I)cc2F)c(C(=O)NC2CC2)cc(Cc2ccnc(NS(=O)(=O)NC3CC3)c2F)c1=O` [Compound J-6, N-Cyclopropyl-5-[[2-(cyclopropylsulfamoylamino)-3-fluoropyridin-4-yl]methyl]-2-(2-fluoro-4-iodoanilino)-1-methyl-6-oxopyridine-3-carboxamide], the IC50 worked out at 7 nM in data set [1] (setting [7]); 86 nM in data set [2]; 14 nM in data set [3] (setting [7]); 7 nM in data set [5] (read-out: BRAF IC50; Table 3); 27 nM in data set [6] (setting [7]). In data set [4], this molecule yielded a microsomal CLint at 0.99 µM of 45 µL/min/mg.

Regarding `CNS(=O)(=O)Nc1nccc(Cc2cc(C(=O)NOC)c(Nc3ccc(I)cc3F)n(C)c2=O)c1F` [Compound J-8, 2-(2-fluoro-4-iodoanilino)-5-[[3-fluoro-2-(methylsulfamoylamino)pyridin-4-yl]methyl]-N-methoxy-1-methyl-6-oxopyridine-3-carboxamide], the IC50 was found to be 5 nM in data set [1] (setting [7]); 15 nM in data set [2]; 24 nM in data set [3] (setting [7]); 2 nM in data set [5] (read-out: BRAF IC50; Table 3); 77 nM in data set [6] (setting [7]). Further, in data set [4], the microsomal CLint at 0.99 µM came out at 3 µL/min/mg.

Take `CNS(=O)(=O)Nc1nccc(Cc2cc(C(=O)NOC(C)(C)C)c(Nc3ccc(I)cc3F)n(C)c2=O)c1F` [Compound J-10, 2-(2-fluoro-4-iodoanilino)-5-[[3-fluoro-2-(methylsulfamoylamino)pyridin-4-yl]methyl]-1-methyl-N-[(2-methylpropan-2-yl)oxy]-6-oxop yridine-3-carboxamide]: the IC50 in data set [1] (setting [7]) is 2 nM; in data set [2], 42 nM; in data set [3] (setting [7]), 8 nM; in data set [5] (read-out: BRAF IC50; Table 3) it was 10 nM; in data set [6] (setting [7]) it was 13 nM. Moreover, the microsomal CLint at 0.99 µM in data set [4] was 28 µL/min/mg.

With `Cn1c(Nc2ccc(I)cc2F)c(C(=O)NOC(C)(C)C)cc(Cc2ccnc(NS(=O)(=O)NC3CC3)c2F)c1=O` [Compound J-11, 5-[[2-(Cyclopropylsulfamoylamino)-3-fluoropyridin-4-yl]methyl]-2-(2-fluoro-4-iodoanilino)-1-methyl-N-[(2-methylpropan-2-yl)oxy]-6-oxopyr idine-3-carboxamide], the 50% inhibitory concentration (IC50) in data set [1] (setting [7]) amounted to 6 nM; in data set [2], 48 nM; in data set [3] (setting [7]), 13 nM; in data set [5] (read-out: BRAF IC50; Table 3) it was 17 nM; in data set [6] (setting [7]) it was 27 nM. The same molecule yielded a microsomal CLint at 0.99 µM in data set [4] of 47 µL/min/mg.

As for `CNS(=O)(=O)Nc1cccc(Cc2cc(C(N)=O)c(Nc3ccc(I)cc3F)n(C)c2=O)c1F` [Compound K-1, 2-(2-Fluoro-4-iodoanilino)-5-[[2-fluoro-3-(methylsulfamoylamino)phenyl]methyl]-1-methyl-6-oxopyridine-3-carboxamide], the IC50 in data set [1] (setting [7]) turned out to be 4 nM; in data set [2], 55 nM; in data set [3] (setting [7]) it was 3 nM; in data set [5] (read-out: BRAF IC50; Table 3), 3 nM; in data set [6] (setting [7]), 14 nM. For the same molecule, the microsomal CLint at 0.99 µM in data set [4] worked out at 97 µL/min/mg.

With `CCNS(=O)(=O)Nc1cccc(Cc2cc(C(N)=O)c(Nc3ccc(I)cc3F)n(C)c2=O)c1F` [Compound K-2, 5-[13-(Ethylsulfamoylamino)-2-fluorophenyl|methyl]-2-(2-fluoro-4-iodoanilino)-1-methyl-6-oxopyridine-3-carboxamide], the IC50 in data set [1] (setting [7]) came to 6 nM; in data set [2], 73 nM; in data set [3] (setting [7]), 6 nM; in data set [5] (read-out: BRAF IC50; Table 3), 4 nM; in data set [6] (setting [7]), 27 nM. Besides, the microsomal CLint at 0.99 µM in data set [4] was 234 µL/min/mg.
